Test results from patent US20190064177A1, “INCORPORATING COMPETITIVE BINDING INFORMATION INTO MOLECULAR ARRAY ANALYSIS TO GENERATE FUNCTION NETWORKS OF INTERACTIONS” (ARIZONA BOARD OF REGENTS ON BEHALF OF ARIZONA STATE …, priority 2017, published 2019).

How the values were obtained:
diaphorase [1] = assay: fluorescently labeled diaphorase binding to peptide array with or without excess FAD; conditions: for 1 microM FAD (array fluorescence of bound diaphorase) / 1 micro no FAD (array fluorescence of bound diaphorase): 1 micromolar labeled diaphorase; for 1 microM FAD (array fluorescence of bound diaphorase) / 10 microM FAD (array fluorescence of bound diaphorase): excess FAD present; for 1 microM FAD (array fluorescence of bound diaphorase) / 1 micro no FAD (array fluorescence of bound diaphorase) / 10 microM FAD (array fluorescence of bound diaphorase) / 10 microM no FAD (array fluorescence of bound diaphorase): 65535 is detector saturation; for 10 microM FAD (array fluorescence of bound diaphorase) / 10 microM no FAD (array fluorescence of bound diaphorase): 10 micromolar labeled diaphorase; for 1 microM noFAD/FAD / 10 microM noFAD/FAD: ratio of binding without FAD to binding with FAD; for 1 microM noFAD/FAD / Meas. ratio: 1 micromolar diaphorase; for 10 microM noFAD/FAD: 10 micromolar diaphorase; for Meas. ratio: ratio without/with FAD calculated from measured binding values
Method: Measurements were performed in which diaphorase was bound to an array of about 126,000 unique sequences. The sequences were chosen simply to cover sequence space. 16 of the natural 20 amino acids were used to make up these sequences with C, I, M and T omitted. The diaphorase was fluorescently labeled and each peptide sequence feature was scanned and fluorescence recorded on the array. Diaphorase bound tightly to some peptides and not at all to others. Two different concentrations of diaphorase were used, 1 and 10 micromolar, and the diaphorase was either bound in the presence of excess FAD or not. […] Indeed the Pearson correlation coefficient between w/ and w/o FAD was >0.97, which actually speaks to the reproducibility of this dataset. However, there are some differences as shown on the scatter plot of FIG. 1. When one takes a ratio of the binding without FAD and the binding with FAD, one finds the following top 30 ratios (Table 1): Note that all these sequences end with a GSG linker sequence. Because there are two concentrations, one can easily check for consistency. Note that 65535 is detector saturation, so one has to ignore those values. For this reason, the lower concentration is used most of the time. […] It appears that this was some kind of error and was ignored in subsequent analysis. A similar conclusion can be made with the 7th highest value. Looking at the sequences, RW or at least R or K followed by a nonpolar or aromatic amino acid at the N-terminus. This is interesting as FAD is negatively charged, though the adenine in FAD looks a bit like tryptophan (see FIG. 2).

Diaphorase [2] = assay: peptide array, 1 uM labeled diaphorase, no FAD
Diaphorase [3] = assay: peptide array, 10 uM labeled diaphorase, no FAD
Diaphorase [4] = assay: peptide array, 1 uM labeled diaphorase, with FAD
Diaphorase [5] = assay: peptide array, 10 uM labeled diaphorase, with FAD
Diaphorase [6] = assay: peptide array, 1 uM diaphorase, binding without FAD / with FAD
Diaphorase [7] = assay: peptide array, 10 uM diaphorase, binding without FAD / with FAD

Molecule	1 microM FAD (array fluorescence of bound diaphorase) (diaphorase [1])	1 micro no FAD (array fluorescence of bound diaphorase) (diaphorase [1])	10 microM FAD (array fluorescence of bound diaphorase) (diaphorase [1])	10 microM no FAD (array fluorescence of bound diaphorase) (diaphorase [1])	1 microM noFAD/FAD (diaphorase [1])	10 microM noFAD/FAD (diaphorase [1])	Meas. ratio (diaphorase [1])	fluorescence (Diaphorase [2])	fluorescence (Diaphorase [3])	fluorescence (Diaphorase [4])	fluorescence (Diaphorase [5])	noFAD/FAD (Diaphorase [6])	noFAD/FAD (Diaphorase [7])
YRFQSGLPAKDGSG [array peptide with C-terminal GSG linker]	1489.75	4041.25	20226.25	50316.25	2.713	2.488	2.71						
RQYQKHSYAKFSGSG [array peptide with C-terminal GSG linker]	2460	6757	27275.5	57203.5	2.747	2.097	2.75						
PRSFGYNNVGGSG [array peptide with C-terminal GSG linker]	2525.5	6842.5	40495.5	65535	2.709	1.618	2.71						
RYAYFQHLGGSG [array peptide with C-terminal GSG linker]	4971.5	13584.75	64053.5	65535	2.733	1.023	2.73						
FNKVLEYKWLFEG							0.73						
YQRHQNVFAKSGG							2.56						
YRRFPYFPGGSG [array peptide with C-terminal GSG linker]							1.60						
VLAYKLQVDGSG [array peptide with C-terminal GSG linker]							0.68						
YRFAQYKGQKDGSG [array peptide with C-terminal GSG linker]	1604.25	4467.75	19933.75	56915	2.785	2.855	2.78						
VFGVLSQVARDGSG [array peptide with C-terminal GSG linker]	6638	4250.5	51495.5	26186.5	0.6403	0.5085	0.64						
NRKFYWNAGGSG [array peptide with C-terminal GSG linker]							2.10						
RLYPQGYGGSG [array peptide with C-terminal GSG linker]	4541.5	11912	61747	65535	2.623	1.061	2.62						
AFNVWQYFEGGSG [array peptide with C-terminal GSG linker]							0.73						
ELFGALFKGGSG [array peptide with C-terminal GSG linker]	3403	2083.5	25315	12943.5	0.6123	0.5113	0.61						
YRNAAWFSGGSG [array peptide with C-terminal GSG linker]	2926	8372.25	43282	65535	2.861	1.514	2.86						
DLFQLVFSGSG [array peptide with C-terminal GSG linker]	9011	5775	65535	32672.5	0.6409	0.4986	0.64						
RQRYPKVSGGSG [array peptide with C-terminal GSG linker]							1.71						
VKDGNKHYWRVSGSG (VKDGANKHYWRVSGSG) [array peptide with C-terminal GSG linker]	12347.25	2221	17803.5	20355.75	0.1799	1.143	0.18						
PRYQNFGGGSG [array peptide with C-terminal GSG linker]	2458	6907	36662	65535	2.81	1.788	2.81						
EAVQKLLFSGSG [array peptide with C-terminal GSG linker]	2420	1457.5	17702.75	5389.5	0.6023	0.3044	0.60						
EGFGYLFAHVGGS							0.78						
LLGFLGGSG [array peptide with C-terminal GSG linker]	4143.5	2317.75	40264.25	26253	0.5594	0.652	0.56						
YNRNAKSSGGSG [array peptide with C-terminal GSG linker]	1546	4014	18565.25	41333.25	2.596	2.226	2.60						
PQKSNHFHEAQKR							2.41						
FLQFLGGSG [array peptide with C-terminal GSG linker]							0.87						
SVLEGYQAVFGGSG [array peptide with C-terminal GSG linker]	2664.5	1341.5	21517.25	6065.25	0.5035	0.2819	0.50						
NVSDLSQFYLSGSG [array peptide with C-terminal GSG linker]	3436.25	2144.5	27800.25	6739	0.6241	0.2424	0.62						
RWYKNGGSG [array peptide with C-terminal GSG linker]	3658	10176.5	46265.5	64775	2.782	1.4	2.78						
LAKQNRVEDGSS (LAKQNRVEDGSG) [array peptide with C-terminal GSG linker]	1435	770.5	3699	2948.5	0.5369	0.7971	0.54						
RQYQKHSYAKFSGSG […]								6760	57200	2460	27300	2.75	2.1
